This series is described as follows: Solubility of host materials (Table 4, solution-processed OLEDs). The format is physicochemical. The note with it: for Solubility: host material, solvent not given (emission-layer mixture is dissolved in toluene).

Molecules are shown by their SMILES. Values after ≈ are worked out from the molar mass of the structure shown. Bounds are passed on as bounds.

Regarding `Cc1c2ccccc2cc2c1ccc1c(-c3c4ccccc4c(-c4ccccc4)c4ccccc34)cccc12` [H-1], the Solubility (as a rule, the dissolved amount per volume that the medium holds) was determined as 40 mg/mL (≈ 80.9 mM).
Same read-out and setting: with `c1ccc2cc(-c3c4ccccc4c(-c4cccc5ccccc45)c4ccccc34)ccc2c1` [VH-4] the figure was 44 mg/mL (≈ 102 mM); with `c1ccc(-c2cc(-c3ccccc3)cc(-c3c4ccccc4c(-c4cccc5c4ccc4cc6ccccc6cc45)c4ccccc34)c2)cc1` [VH-1], 70 mg/mL (≈ 111 mM); with `CC(C)Cc1c2ccccc2cc2c1ccc1c(-c3c4ccccc4c(-c4ccccc4)c4ccccc34)cccc12` [H-2], 45 mg/mL (≈ 83.8 mM).
With `c1ccc(-c2c3ccccc3c(-c3cccc4c3ccc3cc5ccccc5cc34)c3ccccc23)cc1` [VH-3], the Solubility is under 1 mg/mL. The “Solubility / processability from solution (in words)” value (Example V8) is listed as “cannot be processed from solution at all owing to the low solubility”.

The values above are taken from patent publication US11063221B2, “Materials for electronic devices” (Merck Patent GmbH, priority 2014, dated 2021).
